Assay results published in patent publication US5434150A, “Condensed 5-membered heterocyclic compounds, processes for preparing them and pharmaceutical preparations containing these compounds” (Dr. Karl Thomae GmbH, priority 1991, dated 1995).
pEC50, pIC50: −log10 of the molar value. Structures can show the parent of a compound that is named as a salt. Where two headings read alike, the source gives them in different places.

Assays:
[1] = tested on: platelet aggregation (platelet-rich plasma); test: Antithrombotic activity: inhibition of collagen-induced platelet aggregation in platelet-rich plasma (Born and Cross); type: cell-based, human (healthy volunteers); conditions: 50% change in optical density, human platelet-rich plasma, 10 min preincubation
Protocol: 2. Antithrombotic Activity Method The thrombocyte aggregation is measured using the Born and Cross method (J. Physiol. 170:397 (1964)) in platelet-rich plasma taken from healthy volunteers. To inhibit coagulation the blood is mixed with 3.14% sodium citrate in a ratio by volume of 1:10. Collagen-induced aggregation The pattern of the decrease in optical density of the platelet suspension is photometrically measured and recorded after the addition of aggregation-triggering substance. The rate of aggregation is concluded from the angle of inclination of the density curve. The point on the curve where there is maximum light transmittance is used to calculate the optical density. The amount of collagen used is as small as possible but sufficient to produce an irreversible reaction curve. Standard commercial collagen produced by Hormonchemie of Munich is used. Before the addition of the collagen the plasma is incubated for 10 minutes with the substance at […]. From the measurements obtained an EC50 is determined graphically, indicating a 50% change in the optical density in terms of the inhibition of aggregation.

Human Thrombocytes = test: Fibrinogen binding to human thrombocytes (fibrinogen binding test)
Protocol: 1. Fibrinogen Binding to Human Thrombocytes The blood obtained by puncturing an antecubital vein is anticoagulated with trisodium citrate (final concentration: 13 mM) and centrifuged for 10 minutes at 170× g. The supernatant platelet-rich plasma is poured onto a Sepharose 2B column (Pharmacia) and eluted with a solution of 90 mM common salt, 14 mM trisodium citrate, 5 mM glucose and 50 mM tris(hydroxymethyl)aminomethane, adjusted to pH 7.4. The gel-filtered platelets (GFP) appearing before the plasma proteins are used for the binding experiments. 50 μl of a 60 mM calcium chloride solution, 50 μl of a 0.6 mM adenosine diphosphate solution, 100 μl of substance solution or solvent and 50 μl of fibrinogen solution (containing 3 μg of ^125 fibrinogen) are added to 750 μl of GFP and incubated for 20 minutes at ambient temperature. The non-specific binding is determined in the presence of 3 mg/ml of cold fibrinogen. 900 μl of the incubated material are carefully pipetted onto 250 μl of silicon oil (AP 38: AR 20, 1:2 v/v, Wacker Chemie) in Eppendorf tubes and centrifuged for 2 minutes at 10,000× g. The aqueous supernatant and some of the oil are drawn off, the tips of the tubes are cut off together with the platelet pellet and the quantity of bound fibrinogen is determined in a gamma counter. The concentration of substance which brings about a 50% inhibition in fibrinogen binding is determined from a series of concentrations and is given as the IC50 value. | *^125 I fibrogen was replaced by […] |e.

[2] = 125I fibrinogen, 50% inhibition of fibrinogen binding, gel-filtered human platelets, ADP, 20 min ambient temperature, read-out: Fibrinogen binding test IC50
[3] = *: 125I fibrinogen replaced by 3H-(3S,5S)-5-[(amidino-biphenylyl)-oxymethyl]-carboxymethyl-pyrrolidinone ligand, read-out: Fibrinogen binding test IC50 (values marked *)

Row | pEC50 [1] | pIC50 (Human Thrombocytes; [2]) | pIC50 (Human Thrombocytes; [3]) | SMILES
1 |  |  | 7.42 | N=C(N)c1ccc(-c2nc3cc(C(=O)NCCC(=O)O)ccc3n2Cc2ccccc2)cc1 [1(62), 2-(4-amidino-phenyl)-1-benzyl-5-[(2-carboxy-ethyl)-aminocarbonyl]-benzimidazole-hydrochloride]
2 | 6.80 |  | 7.31 | N=C(N)c1ccc(-c2nc3cc(C(=O)NCCC(=O)O)ccc3n2CCCN2CCSCC2)cc1 [1(73), 2-(4-amidino-phenyl)-5-[(2-carboxy-ethyl)-aminocarbonyl]-1-(3-thiomorpholino-propyl)-benzimidazole]
3 | 6.51 |  | 6.92 | N=C(N)c1ccc(-c2nc3cc(C(=O)NCCC(=O)O)ccc3n2CCCN2CC[S+]([O-])CC2)cc1 [1(74), 2-(4-amidino-phenyl)-5-[(2-carboxy-ethyl)-aminocarbonyl]-1-[3-(S-oxido-thiomorpholino)-propyl]-benzimidazole]
4 | 5.96 |  | 6.64 | N=C(N)c1ccc(-c2nc3cc(C(=O)NCCC(=O)O)ccc3n2CCCN2CCS(=O)(=O)CC2)cc1 [1(75), 2-(4-amidino-phenyl)-5-[(2-carboxy-ethyl)-aminocarbonyl]-1-[3-(S,S-dioxido-thiomorpholino)-propyl]-benzimidazole]
5 | 5.94 |  |  | N=C(N)c1ccc(-c2nc3cc(C(=O)NCCC(=O)O)ccc3n2CCCN)cc1 [1(76), 2-(4-amidino-phenyl)-1-(3-amino-propyl)-5-[(2-carboxy-ethyl)-aminocarbonyl]-benzimidazole-diacetate]
6 | 7.10 | 7.52 |  | N=C(N)c1ccc(-c2nc3cc(C(=O)NCCC(=O)O)ccc3n2CCN2CCN(Cc3ccccc3)CC2)cc1 [1(136), 2-(4-amidino-phenyl)-1-[2-(4-benzyl-piperazino)-ethyl]-5-[(2-carboxy-ethyl)-aminocarbonyl]-benzimidazole]
7 | 5.15 |  | 5.74 | NCc1ccc(-c2nc3cc(C(=O)NCCC(=O)O)ccc3n2CCCN2CCSCC2)cc1 [1(137), 2-(4-aminomethyl-phenyl)-5-[(2-carboxy-ethyl)-aminocarbonyl]-1-(3-thiomorpholino-propyl)-benzimidazole]
8 | 5.44 |  | 5.82 | N=C(N)c1ccc(-c2nc3cc(C(=O)NCCC(=O)O)ccc3n2CCCC(=O)O)cc1 [1(138), 2-(4-amidino-phenyl)-5-[(2-carboxy-ethyl)-aminocarbonyl]-1-(3-carboxy-propyl)-benzimidazole]
9 | 5.42 |  | 5.70 | COC(=O)CCNC(=O)c1ccc2c(c1)nc(-c1ccc(C(=N)N)cc1)n2CCCN1CCSCC1 [3(59), 2-(4-amidino-phenyl)-5-[(2-methoxycarbonyl-ethyl)-aminocarbonyl]-1-(3-thiomorpholino-propyl)-benzimidazole]
10 | 5.70 |  | 5.89 | COC(=O)CCCn1c(-c2ccc(C(=N)N)cc2)nc2cc(C(=O)NCCC(=O)OC)ccc21 [3(120), 2-(4-amidino-phenyl)-5-[(2-methoxycarbonyl-ethyl)-aminocarbonyl]-1-(3-methoxycarbonyl-propyl)-benzimidazole-hydrochloride]
11 | 4.89 |  | 4.82 | COC(=O)CCNC(=O)c1ccc2c(c1)nc(-c1ccc(C(=N)N)cc1)n2CCCC(=O)O [3(121), 2-(4-amidino-phenyl)-1-(3-carboxy-propyl)-5-[(2-methoxycarbonyl-ethyl)-aminocarbonyl]-benzimidazole]

More lines, now with the values behind:

Row | SMILES | pEC50 [1] | pIC50 (Human Thrombocytes; [2]) | pIC50 (Human Thrombocytes; [3])
12 | N=C(N)c1ccc(-c2nc3cc(NC(=O)CCC(=O)O)ccc3[nH]2)cc1 [1(1), 2-(4-amidino-phenyl)-5(6)-[(2-carboxy-ethyl)-carbonyl-amino]-benzimidazole] | 5.18 | 6.22 | 
13 | N=C(N)c1ccc(-c2nc3cc(C(=O)NCCC(=O)O)ccc3[nH]2)cc1 [1(2), 2-(4-amidino-phenyl)-5(6)-[(2-carboxy-ethyl)-aminocarbonyl]-benzimidazole-hydrochloride] | 5.48 |  | 6.14
14 | Cn1c(-c2ccc(C(=N)N)cc2)[n+]([O-])c2cc(C(=O)NCCC(=O)O)ccc21 [1(79), 2-(4-amidino-phenyl)-5-[(2-carboxy-ethyl)-aminocarbonyl]-1-methyl-benzimidazole-3-oxide] | 7.10 | 7.39 | 
15 | N=C(N)c1ccc(OCc2nc3cc(OCC(=O)O)ccc3[nH]2)cc1 [1(135), 2-[(4-amidino-phenyl)-oxymethyl]-5(6)-carboxymethoxy-benzimidazole] | 5.12 | 6.10 | 
16 | CNc1cc2c(cc1C(=O)NCCC(=O)O)nc(-c1ccc(C(=N)N)cc1)n2C [1(139), 2-(4-amidino-phenyl)-5-[(2-carboxy-ethyl)-aminocarbonyl]-1-methyl-6-methylamino-benzimidazole] | 5.82 |  | 6.39
17 | CN(CC(=O)O)c1cc2c(cc1C(=O)NCCC(=O)O)nc(-c1ccc(C(=N)N)cc1)n2C [1(140), 2-(4-amidino-phenyl)-5-[(2-carboxy-ethyl)-aminocarbonyl]-6-(N-carboxymethyl-methylamino)-1-methyl-benzimidazole] | 6.12 |  | 6.66
18 | Cn1c(-c2ccc(C(=N)N)cc2)nc2c(=O)n(CCCCC(=O)O)c(=O)n(C)c21 [1(160), 8-(4-amidino-phenyl)-1-(4-carboxy-butyl)-3,9-dimethyl-xanthine] | 7.15 |  | 8.12
19 | COC(=O)CCNC(=O)c1cnc2c(c1)nc(-c1ccc(C(=N)N)cc1)n2C [3(19), 2-(4-amidino-phenyl)-6-[(2-methoxycarbonyl-ethyl)-aminocarbonyl]-3-methyl-imidazo[4,5-b]pyridine] | 6.48 |  | 6.55
20 | COC(=O)CCNC(=O)c1ccc2c(c1)nc(-c1ccc(C(=N)N)cc1)n2Cc1ccccc1 [3(48), 2-(4-amidino-phenyl)-1-benzyl-5-[(2-methoxycarbonyl-ethyl)-aminocarbonyl]-benzimidazole-hydrochloride] | 5.19 |  | 5.15
21 | COC(=O)CCNC(=O)c1ccc2c(c1)nc(-c1ccc(C(=N)N)cc1)n2Cc1cccnc1 [3(52), 2-(4-amidino-phenyl)-5-[(2-methoxycarbonyl-ethyl)-aminocarbonyl]-1-(3-pyridylmethyl)-benzimidazole] | 5.02 |  | 5.32
22 | CCCCCCCCCCCCCCn1c(-c2ccc(C(=N)N)cc2)nc2cc(C(=O)NCCC(=O)OC)ccc21 [3(119), 2-(4-amidino-phenyl)-5-[(2-methoxycarbonyl-ethyl)-aminocarbonyl]-1-n-tetradecyl-benzimidazole] | 4.41 |  | 5.34
23 | COC(=O)CCNC(=O)c1ccc2c(c1)nc(-c1ccc(C(=N)N)cc1)n2CCCCc1ccccc1 [3(122), 2-(4-amidino-phenyl)-5-[(2-methoxycarbonyl-ethyl)-aminocarbonyl]-1-(4-phenyl-butyl)-benzimidazole] | 5.07 |  | 5.40
24 | CNc1cc2c(cc1C(=O)NCCC(=O)OC)nc(-c1ccc(C(=N)N)cc1)n2C [3(123), 2-(4-amidino-phenyl)-5-[(2-methoxycarbonyl-ethyl)-aminocarbonyl]-1-methyl-6-methylamino-benzimidazole-hydrochloride-hydrogen acetate] | 4.92 |  | 4.60
25 | COC(=O)CCNC(=O)c1cc2nc(-c3ccc(C(=N)N)cc3)n(C)c2cc1N(C)CC(=O)OC [3(124), 2-(4-amidino-phenyl)-5-[(2-methoxycarbonyl-ethyl)-aminocarbonyl]-6-(N-methoxycarbonylmethyl-methylamino)-1-methyl-benzimidazole-hydrochloride] | 5.55 |  | 4.77
26 | COC(=O)CCNC(=O)c1ccc2c(c1)nc(-c1ccc(C(=N)N)cc1)n2CCc1cc(Br)c(N)c(Br)c1 [3(125), 2-(4-amidino-phenyl)-1-[2-(4-amino-3f5-dibromo-phenyl)-ethyl]-5-[(2-methoxycarbonyl-ethyl)-aminocarbonyl]-benzimidazole] | 6.60 | 5.70 | 
27 | COC(=O)CCNC(=O)c1ccc2c(c1)nc(-c1ccc(C(=N)N)cc1)n2CCC(c1ccccc1)c1ccccc1 [3(126), 2-(4-amidino-phenyl)-1-(3,3-diphenyl-propyl)-5-[(2-methoxycarbonyl-ethyl)-aminocarbonyl]-benzimidazole] | 5.00 | 5.66 | 
28 | COC(=O)COc1ccc2[nH]c(COc3ccc(C(=N)N)cc3)nc2c1 [Example 3, 2-[(4-Amidino-phenyl)-oxymethyl]-5(6)-methoxycarbonyl-methoxy-benzimidazole-hydrochloride] | 5.92 |  | 
